≈ marks a conversion by molar mass, not a printed value. Where “and” joins values, the source holds several entries; their conditions need not be identical. Equal entries are not always repeated. Where two headings read alike, the source gives them in different places.
Experiments:
M. avium 11 [1] = test: Dose-response growth inhibition (broth microdilution); assay type: cell-based, Mycobacterium avium; conditions: Mycobacterium avium, 11, 96 h
M. tuberculosis H37Rv = test: as above; assay type: cell-based; conditions: Mycobacterium tuberculosis, H37RV, 168 h
M. abscessus Bamboo [2] = test: Bactericidal assay (CFU, fold kill); assay type: cell-based, Mycobacterium abscessus; conditions: 10^7 CFU/mL exposed to MIC90 for 3 days, CFU vs starting inoculum
M. abscessus Bamboo [3] = test: Dose-response growth inhibition (broth microdilution); assay type: cell-based, Mycobacterium abscessus; conditions: Mycobacteroides abscessus, 72 h
[4] = rat, ref http://www.pathogenbox.org/, cited from earlier work
M. tuberculosis = system: M. tuberculosis; set-up: method as in http://www.pathogenbox.org/; conditions: as reported by MMV, ref http://www.pathogenbox.org/; cited from earlier work
M. abscessus = conditions: cited from earlier work
M. avium = conditions: cited from earlier work
M. avium 11 [5] = test: Single point growth inhibition screening assay; assay type: cell-based, Mycobacterium avium; conditions: M. avium 11, 20 μM, 4 days
[6] = ref Brown-Elliott et al., 2003, Cavusoglu et al., 2007, Aziz et al., 2017

In the case of `Cc1ccccc1CN1CCC(O)(c2ccc(Cl)c(C(F)(F)F)c2)CC1` [MMV688846], the MIC50 (M. avium 11 [1]) is reported as 20 µM (≈ 7.68 µg/mL), the IC90 (M. avium 11 [1]; read-out: MIC90) is reported as > 50 µM and the MIC50 (M. tuberculosis H37Rv) is reported as 0.2 µM (≈ 0.0768 µg/mL). The MIC90 (M. tuberculosis H37Rv) was 0.6 µM (≈ 0.23 µg/mL), the “Fold kill at MIC90” value (M. abscessus Bamboo [2]) was 10 fold and the MIC50 (M. abscessus Bamboo [3]) was 0.7 µM (≈ 0.269 µg/mL). For the same molecule, the MIC90 (M. abscessus Bamboo [3]) was 1.5 µM (≈ 0.576 µg/mL), the AUCinf ([4]; IV 1 mg/kg, mean n = 2) was 464 ng·h/mL and the AUClast ([4]; IV 1 mg/kg, mean n = 2) was 423 ng·h/mL. For the same molecule, the C0 ([4]; IV 1 mg/kg, mean n = 2) was 563 ng/mL, the Cl ([4]; IV 1 mg/kg, mean n = 2) was 36.8 mL/min/kg and the Vss ([4]; IV 1 mg/kg, mean n = 2) was 14.4 L/kg. For the same molecule, the t1/2 ([4]; IV 1 mg/kg, mean n = 2) was 9.78 h, the “%F” value ([4]; PO 5 mg/kg vs IV 1 mg/kg) was <1% and the Cmax ([4]; PO 5 mg/kg, mean n = 2, BLQ = < 1 ng/mL) was 3.19 ng/mL. The AUCinf ([4]; PO 5 mg/kg, mean n = 2) was 27.5 ng·h/mL, the AUClast ([4]; PO 5 mg/kg, mean n = 2) was 18.1 ng·h/mL and the t1/2 ([4]; PO 5 mg/kg, mean n = 2) was 4.6 h. The tmax ([4]; PO 5 mg/kg, mean n = 2) was 1.5 h and the “Reported MIC” value (M. tuberculosis) was 0.4 µM.

For `CC(C)=CCC/C(C)=C/CNCCNC1C2CC3CC(C2)CC1C3` (stereo not shown) [SQ109], the MIC (M. abscessus; ref Sacksteder et al., 2012) is listed as 4–16 mg/L and 12–48 μM and the MIC (M. avium; ref Sacksteder et al., 2012) is listed as 4–16 mg/L and 12–48 μM.

In the case of `CC(C)/N=c1\cc2n(-c3ccc(Cl)cc3)c3ccccc3nc-2cc1Nc1ccc(Cl)cc1` [clofazimine], the “Activity in primary screen (hit = equal or more than 80% growth inhibition)” value (M. avium 11 [5]) is reported as “M. avium-specific hits”.

With `C[C@]1(COc2ccc(N3CCC(Oc4ccc(OC(F)(F)F)cc4)CC3)cc2)Cn2cc([N+](=O)[O-])nc2O1` [delamanid] the “Activity in primary screen (hit = equal or more than 80% growth inhibition)” value (M. avium 11 [5]) was “M. avium-specific hits”.

In the case of `C[C@@H](O)[C@H]1C(=O)N2C(C(=O)O)=C(SCCN=CN)C[C@H]12` [imipenem], the MIC (M. abscessus; ref Lavollay et al., 2014) is given as “around 27 μM and ~8 mg/L”.

For `CC(=O)NC[C@H]1CN(c2ccc(N3CCOCC3)c(F)c2)C(=O)O1` [linezolid], the MIC90 (M. abscessus; [6]) is listed as 36 µM (≈ 12.1 µg/mL) and the MIC90 (M. avium; [6]) is listed as 22 µM (≈ 7.42 µg/mL).

In the case of `OC(c1cc(C(F)(F)F)nc2c(C(F)(F)F)cccc12)C1CCCCN1` (stereo not shown) [mefloquine], the “Activity in primary screen (hit = equal or more than 80% growth inhibition)” value (M. avium 11 [5]) is reported as “M. avium-specific hits”.

For `CO[C@H]1/C=C/O[C@@]2(C)Oc3c(C)c(O)c4c(O)c(c(/C=N/N5CCN(C)CC5)c(O)c4c3C2=O)NC(=O)/C(C)=C\C=C\[C@H](C)[C@H](O)[C@@H](C)[C@@H](O)[C@@H](C)[C@H](OC(C)=O)[C@@H]1C` [rifampicin], the MIC (M. abscessus; ref Aziz et al., 2017) is given as ≥ 37 µM and the “Activity in primary screen (hit = equal or more than 80% growth inhibition)” value (M. avium 11 [5]) is given as “M. avium-specific hits”.

For `[H]/N=C(/N)N[C@H]1[C@H](O)[C@@H](O)[C@H](O[C@@H]2O[C@@H](C)[C@](O)(C=O)[C@H]2O[C@@H]2O[C@@H](CO)[C@H](O)[C@@H](O)[C@@H]2NC)[C@@H](N/C(N)=N\[H])[C@@H]1O` [streptomycin], the “Activity in primary screen (hit = equal or more than 80% growth inhibition)” value (M. avium 11 [5]) was “M. avium-specific hits”.

From publication PMC5559473, “Screening of TB Actives for Activity against Nontuberculous Mycobacteria Delivers High Hit Rates” (Frontiers in Microbiology, 2017)
